# Test results published in patent EP0188169A1, “Bis-2-(4-hydroxy-2-isopropyl-5-methyl-phenoxy)-ethyl amines, process for their synthesis and pharmaceutical preparations containing them” (CORTIAL S.A., priority 1984, dated 1986).
# Like-named read-outs stand apart in the source and are kept apart here.
# What was measured:
# [1] = system: contractions de strips aortiques isolés de lapin induites par la noradrénaline; assay: Alpha-blocking activity in vitro: antagonism of noradrenaline-induced contractions of isolated rabbit aortic strips; type: cell-based; settings: Oryctolagus cuniculus, 1 h; noradrenaline 2.10^-6 mole/l; compound added 60 mn before the agonist; limits in brackets; read-out: CI50 (concentration inhibant 50% des contractions)
# Excerpt: Activité alohabloauante : In vitro l'activité alphabloquante est appréciée par la détermination de l'antagonisme des contractions de strips aortiques isolés de lapin induites par la noradrénaline employée à la concentration de 2.10^-6 mole/l selon une technique dérivée de celle de Furchgott et Bhadrakom (J. Pharmacol., 1953, 108, 129-43). L'activité maximale est obtenue quand le COR28 35 est introduit dans le bain 60 mn avant l'agoniste. La CI50 (concentration inhibant 50% des contractions) est égale dans ces conditions à 1,52.10-' (1,12.10^-7 -2,07.10-') mole/l.
# [2] = system: contraction induite par 5.10^-7g/ml de sérotonine sur iléon isolé de cobaye; assay: Antiserotoninergic activity: serotonin-induced contraction of isolated guinea-pig ileum; type: cell-based; settings: serotonin 5.10^-7g/ml; compound in contact 15 mn before the agonist; limits in brackets; read-out: CI50 (ou concentration inhibant 50% des contractions)
# Excerpt: Activité antisérotoninergigue : le COR28 35 inhibe in vitro la contraction induite par 5.10^-7g/ml de sérotonine sur iléon isolé de cobaye. L'effet maximum est obtenu quand le COR28 35 est mis au contact de l'organe isolé 15 mn avant d'introduire l'agoniste. La CI50 (ou concentration inhibant 50% des contractions) est dans ces conditions de 1,58.10^-7(1,00.10^-7-2,51.10^-7) mole/l.
# [3] = system: anaphylaxie passive cutanée; assay: Antiallergic activity: passive cutaneous anaphylaxis test; type: in vivo; settings: rat, oral
# Experimental: Activité antiallergigue : dans le test de l'anaphylaxie passive cutanée, le COR28 35 administré à 5 mg/kg par voie orale chez le rat entraine 60% d'activité. La prométhazine, administrée dans les mêmes conditions, entraine 53% d'activité à la dose de 10 mg/kg.
# [4] = system: hypertension induite par la phényléphrine; assay: Alpha-blocking activity in vivo: antagonism of phenylephrine-induced hypertension in pithed, bivagotomised rats (i.v.); parameters: species or system rats amyélés et bivagotomisés; settings: for ED50: Rattus norvegicus, iv, read-out: DE50 (the source's name)
# Excerpt: ln vivo l'activité alpha bloquante est appréciée par la détermination de l'antagonisme de l'hypertension induite par la phényléphrine. Le produit à tester est administré par voie intraveineuse à des rats amyélés et bivagotomisés selon la technique de J.S.Gillespie et T.S. Muir (Br.J. Pharmac. Chemother., 1967, 30, 78-87). On indique ci-après pour le COR28 35, en fonction de la dose administrée, l'activité maximale et le temps au bout duquel l'activité résiduelle est égale à 50% de l'activité maximale : 4,42.10^-7 M/kg, --77,8%. 30 mn; 10^-6 M/kg, -94,5%, 55 mn; 3,53.10^-6 M/kg, -97,1%, 90 mn. La DE50 déterminée dans ces conditions pour le COR28 35 est de 1,48.10^-8 mole/kg au bout de 2 mn, 6,77.10^-7 mole/kg au bout de 30 mn et 1,87.10^-6 mole/kg au bout de 60 mn.
# [5] = system: contractions induites par 2,5.10^-8 g/ml d'angiotensine I sur des préparations de segments d'iléon de cobaye; assay: Inhibition of angiotensin I-induced contractions of guinea-pig ileum segments; type: cell-based; settings: concentration 10-' g/ml; angiotensin I 2,5.10^-8 g/ml added 2 mn after the compound
# Excerpt: L'activité inhibitrice des produits de la présente invention vis à vis des contractions induites par 2,5.10^-8 g/ml d'angiotensine I sur des préparations de segments d'iléon de cobaye a été déterminée. L'angiotensine 1 est introduite dans le bain 2 mn après le produit à tester. Dans ces conditions, le COR28 35 entraine 51% d'inhibition des contractions à la concentration de 10-' g/ml.
# [6] = system: rats spontanément hypertendus; assay: Antihypertensive activity in spontaneously hypertensive rats (oral); type: in vivo
# Experimental: Activité antihvoertensive : le produit à tester est administré par voie orale à des rats spontanément hypertendus. La pression artérielle est mesurée de façon indirecte en utilisant un sphygmomanomètre. Pour le COR28 35 administré à la dose de 100 mg/kg/j pendant 2 jours, la chute de pression maximale observée est de 14% le premier jour de traitement, 1 heure après le gavage. […] Administré dans les mêmes conditions à la dose de 50 mg/kg/j, la chute de pression artérielle maximale est de 15% 1 heure après gavage.
# [7] = Acute toxicity (mortality, LD50) in mice; type: in vivo; settings: in vivo, mouse
# souris = assay: Acute toxicity (mortality, LD50) in mice; type: in vivo; settings: mouse
# [8] = system: effet hypertenseur induit par 4.10-' mg/kg de phényléphrine; assay: Alpha-blocking activity in conscious normal rats: antagonism of the phenylephrine pressor effect (oral); type: in vivo, rat Sprague-Dawley normal vigile
# Excerpt: L'activité alphabloquante des produits selon la présente invention à également été déterminée chez le rat Sprague-Dawley normal vigile. Les veines jugulaires et les artères carotides des animaux sont cathétérisées sous anesthésie à l'éther. Après récupération d'une heure, la pression artérielle et la fréquence cardiaque sont enregistrées de façon continue. L'activité des produits à tester, administrés par voie oral, vis à vis de l'effet hypertenseur induit par 4.10-' mg/kg de phényléphrine est déterminée. On indique ci-après pour le COR28 35, en fonction de la dose administrée, l'activité maximale et le temps au bout duquel l'activité résiduelle est égale à 50% de l'activité maximale : 5 mg/kg, -38,75%, 66 mm; 10 mg/kg, --37.18%. 65 mn; 20 mg/kg, -66,37%, 66 mn.
# [9] = system: souris rendue hy- percholestérotémique; assay: Hypolipidaemic activity in mice made hypercholesterolaemic by diet; type: in vivo; settings: mouse, oral, 200 mg/kg on days 6 and 7 of the diet
# Experimental: Activité hvoolioidémiante : chez la souris rendue hy- percholestérotémique par un régime riche en cholestérol et acide cholique pendant 7 jours, l'administration de 200 mg/kg de COR28 35 par voie orale, le 6° et le 7° jour, entraine une diminution du cholestérol sérique de 17% et une diminution des HP-bétalipoprotéines de 27% accompagnées d'une diminution du rapport VLDL + LDL/cholestérol.
# [10] = system: tremblements musculaires produits chez la souris par l'administration de 0,5 mg/kg d'oxotrémorine; assay: Anticholinergic activity: oxotremorine-induced muscle tremors in mice; type: in vivo; settings: mouse, intraperitoneal, assessed one hour after administration, oxotremorine 0,5 mg/kg s.c.
# Experimental: Activité anticholineraiaue : l'activité inhibitrice des produits de la présente invention vis à vis des tremblements musculaires produits chez la souris par l'administration de 0,5 mg/kg d'oxotrémorine par voie sous cutanée est déterminée. L'eftet est apprécié une heure après l'administration par voie intrapéritonéale des produits à tester; dans ces conditions, le COR28 35 est actif à la dose de 5mg/kg.
structure (smiles),measurement,setting,value
Cc1cc(OCCN(C)CCOc2cc(C)c(O)cc2C(C)C)c(C(C)C)cc1O [COR28 35],IC50,[1],0.152 µM
same,IC50,[2],0.158 µM
same,activité,[3]; 5 mg/kg,60%
same,ED50,"[4]; 2 min, i.v., after 2 mn",0.0148 µmol/kg
same,ED50,"[4]; 0.5 h, i.v., after 30 mn",0.677 µmol/kg
same,ED50,"[4]; 1 h, i.v., after 60 mn",1.87 µmol/kg
same,activité maximale,"[4]; i.v., 3,53.10^-6 M/kg","-97,1%"
same,temps au bout duquel l'activité résiduelle est égale à 50% de l'activité maximale,"[4]; i.v., 3,53.10^-6 M/kg",90 mn
same,temps au bout duquel l'activité résiduelle est égale à 50% de l'activité maximale,"[4]; i.v., 4,42.10^-7 M/kg",30 mn
same,activité maximale,"[4]; i.v., 10^-6 M/kg","-94,5%"
same,temps au bout duquel l'activité résiduelle est égale à 50% de l'activité maximale,"[4]; i.v., 10^-6 M/kg",55 mn
same,inhibition des contractions,[5],51%
same,chute de pression artérielle maximale,"[6]; 50 mg/kg/j, 1 hour after gavage",15%
same,pression par rapport au lot témoin,"[6]; 100 mg/kg/j for 2 days, 6 hours after gavage on the second day",significativement abaissée
same,chute de pression maximale observée,"[6]; 100 mg/kg/j for 2 days, first day of treatment, 1 hour after gavage",14%
same,mortality,"[7]; ip, intraperitoneal, 1000 mg/kg, read-out: mortalité",40%
same,LD50,"[7]; intravenous, limits in brackets, read-out: DL50 (the source's name)",53.5 mg/kg
same,mortalité,"souris; intraperitoneal, 500 mg/kg",aucune mortalité
same,mortalité,"souris; oral, 300 mg/kg",aucune mortalité
same,activité maximale,[8]; 5 mg/kg,"-38,75%"
same,temps au bout duquel l'activité résiduelle est égale à 50% de l'activité maximale,[8]; 5 mg/kg,66 min
same,temps au bout duquel l'activité résiduelle est égale à 50% de l'activité maximale,[8]; 10 mg/kg,65 mn
same,activité maximale,[8]; 20 mg/kg,"-66,37%"
same,temps au bout duquel l'activité résiduelle est égale à 50% de l'activité maximale,[8]; 20 mg/kg,66 mn
same,diminution des HP-bétalipoprotéines,[9],27%
same,diminution du cholestérol sérique,[9],17%
same,rapport VLDL + LDL/cholestérol,[9],diminution
same,activité inhibitrice vis à vis des tremblements musculaires,[10],actif
"CC(CN1c2ccccc2Sc2ccccc21)N(C)C (centres unmarked) [prométhazine, reference compound]",activité,[3]; 10 mg/kg,53%
